Measured values taken from paper PMC12040169 (PLOS Biology, 2025).

assay: in vitro; conditions: human, hela cells, % viability

Structure (SMILES)	viability at 28.5 h, 10 µM [%]
Cc1cc2cccc(NC(=O)NCc3cncn3CC(C)C)c2o1 [CBK306715]	101
CCn1ncnc1CN1CCN(Cc2ccccc2CO)CC1 [CBK306717]	88.1
CCn1ncc(CN(C)C(=O)CCN2CCCCCC2=O)c1C [CBK306718]	97.2
Cc1cc(C)n(CCNC(=O)N2CCC(Oc3cccnc3)CC2)n1 [CBK306719]	109
CSc1nnc(CC2CCN(C(=O)c3ccccc3C(C)=O)CC2)n1C [CBK306720]	111
Cc1ccc(OCc2occc2C(=O)NCCn2ccnc2C)cc1 [CBK306725]	93.7
CN1CC(C(=O)N(C)Cc2nc(-c3ccccc3)no2)NC1=O (stereo not shown) [CBK306727]	108
CCn1cc(CN(CC(C)C)C(=O)c2ccccc2C#N)cn1 [CBK306729]	102
Cn1ncnc1CCNS(=O)(=O)c1cccc(C(=O)N2CCCCC2)c1 [CBK306731]	101
COCCN(C)c1nc2c(c(=O)[nH]1)Cc1ccccc1OC2 [CBK306737]	105
CCCn1ccnc1CNc1nc(C(C)(C)C)nc2c1cnn2C [CBK306739]	91.3
CO[C@@]12CC[C@@H](O)C[C@@H]1N(C(=O)c1cccc3c1NCCC3)CC2 [CBK306741]	109
COCCC(=O)NCC1Cc2cc(F)cc(-c3ccc(C(C)=O)s3)c2O1 (stereo not shown) [CBK306742]	109
COc1c[nH]c(C(=O)NC(CCn2ccnc2)c2ccccc2)cc1=O (stereo not shown) [CBK306743]	94
CC(=O)N1CCc2c(nc(N(C)C)nc2NCCCOC(C)C)C1 [CBK306745]	84.4
COC(=O)N1CCCCC1C(=O)NCCc1nc(C)cc(C(F)(F)F)n1 (stereo not shown) [CBK306752]	94.2
O=C(c1cncs1)N1CCn2nc(C(O)Cc3ccccc3)cc2C1 (stereo not shown) [CBK306754]	90.6
CN(Cc1nc(-c2ccccc2)no1)C(=O)C1CCOC1 (stereo not shown) [CBK306755]	107
O=C(c1cn2cc(-c3cccs3)n(CC3CC3)c(=O)c2n1)N1CCCC1 [CBK306756]	92.8
CN(Cc1nc2c(s1)CCCC2)C(=O)COc1ccc2nncn2n1 [CBK306758]	98.9
COc1ccc(-n2ncc3c2CC(C)(C)CC3NS(C)(=O)=O)cc1 (stereo not shown) [CBK306759]	88.7
CCc1nccn1CCC(=O)NC1CCN(c2ccc(F)cc2)CC1 [CBK306760]	90.1
CN(CC(=O)NCC1CCN(c2cccc(Cl)c2)C1)Cc1cccnc1 (stereo not shown) [CBK306761]	93.4

Structure (SMILES)	viability at 28.5 h, 10 µM [%]
COc1cc(OC)cc(-c2c(C)ncnc2OC)c1 [CBK306765]	91.4
CC(=O)N1CCn2nc(C(=O)N(CCO)Cc3ccccc3)cc2C1 [CBK306769]	89.3
CCCS(=O)(=O)NC1CC(C)(C)Cc2c1cnn2-c1ccc(F)cc1 (stereo not shown) [CBK306770]	113
CCn1nc(C)c(NC(=O)CN(C)Cc2ccccc2C(F)(F)F)c1C [CBK306771]	106
CN(C)S(=O)(=O)CCNC(=O)c1ccc(-c2ccccc2CO)cc1 [CBK306773]	95.6
O=C(c1ccccn1)C1CCCN(c2nccc(CCC(F)(F)F)n2)C1 (stereo not shown) [CBK306775]	109
CCCc1cc(C(=O)N2CCCC(COc3cccc(F)c3)C2)[nH]n1 (stereo not shown) [CBK306776]	85.3
Cn1c(=O)n(C)c2cc(S(=O)(=O)NCC3(O)CCCNCC3)ccc21 (stereo not shown) [CBK306777]	84.9
CC(=O)OCc1c(C)cc(C)c(CN(C)C(C)c2ccon2)c1C (stereo not shown) [CBK306780]	79.3
CN(CCN1CCOCC1)c1nc2c(c(=O)[nH]1)Cc1ccccc1OC2 [CBK306783]	75.4
CC(=O)Nc1ccc(C(=O)N(Cc2ccccn2)CC2CCCO2)cn1 (stereo not shown) [CBK306784]	83.7
CCn1c(CC2CCN(c3ncc(C#N)c(N)n3)CC2)nn(C)c1=O [CBK306788]	93.3
COc1ccc(-n2ncc3c2CC(C)(C)CC3N)cc1 (stereo not shown) [CBK306789]	80
CCCn1ccnc1-c1cn(Cc2cc(C(C)(C)C)n[nH]2)nn1 [CBK306791]	118
Cn1c(CO)nnc1[C@H]1C[C@@H](NC(=O)CCc2ccc(F)cc2F)C1 [CBK306796]	86.4
Cc1c[nH]c(CN(C)c2cc([C@H]3C[C@@H](N)C3)nc(N3CCCC3)n2)n1 [CBK306798]	84.4
CCCOCC1CCN(C(=O)Nc2ccc(Oc3cccnc3)cc2)C1 (stereo not shown) [CBK306799]	102
CCCn1cnnc1C(C)NC(=O)Nc1ccnn1CC1CCCCC1 (stereo not shown) [CBK306800]	105
CN1CCC(Cc2nc(CC3CCCOC3)n(CC(F)(F)F)n2)CC1 (stereo not shown) [CBK306801]	83.2
CCC(c1cccnc1)N(C)C(=O)c1ccc(=O)n(C)c1 (stereo not shown) [CBK306802]	101
COc1cccc(C(=O)NCCC(=O)N2CCC3(CC2)CNC(=O)O3)c1 [CBK306803]	88.2
CCc1noc(C)c1C(=O)NCc1cccnc1N(C)C1CCCCC1 [CBK306804]	98.9
CCOCCNC(=O)c1coc(COc2ccc3sc(C)nc3c2)n1 [CBK306805]	109

Structure (SMILES)	viability at 28.5 h, 10 µM [%]
Cc1nccnc1N1CCC2(CCCN(CC3CCC3)C2=O)C1 (stereo not shown) [CBK306806]	103
CN(Cc1ccc(CN2CCOC(c3ccccc3)C2)o1)S(C)(=O)=O (stereo not shown) [CBK306808]	88.2
Cc1cc(=O)c2ccccc2n1CC(=O)N1CCC2(CCO2)CC1 [CBK306809]	88.5
CC(NC(=O)C1(Cn2ccnc2)CC1)c1cccnc1 (stereo not shown) [CBK306812]	97.3
CCCc1cc(C(=O)N2CCN(C)C3(CCNC(=O)CC3)C2)ccn1 (stereo not shown) [CBK306815]	96.2
Cc1nnnn1CCC(=O)NCCc1cn2ccccc2n1 [CBK306816]	121
Cc1ccc(C(=O)NC(CC(C)C)c2nnc3n2CCNCC3)c(F)c1 (stereo not shown) [CBK306817]	85
Cn1c(O)c(CCNc2cc([C@H]3C[C@@H](N)C3)nc(C3CC3)n2)cnc1=O [CBK306819]	85
O=c1c2c(-c3ccc(F)cc3)csc2ncn1CC1(CO)CCOCC1 [CBK306822]	88
CCN1CC2(CCC1=O)CCN(Cc1cccc(CCN)c1)CC2 [CBK306823]	100
Cn1c(N2CC[C@H](O)C2)nc2cc(C(=O)NCCc3cscn3)ccc21 [CBK306824]	88.5
CC(C)c1nc(CCNC(=O)C2(Cn3ccnc3)CC2)no1 [CBK306828]	86.2
CC(C)[C@H]1CN(Cc2cc(C#N)n(C)c2)C[C@@H]1NC(=O)C1CCC1 [CBK306832]	91.6
COc1cncc(C(NC(=O)c2cc(=O)cc(C)o2)[C@H]2C[C@@H](O)C2)c1 (stereo partly shown) [CBK306833]	97.5
CCn1nc(-c2ccc(C)o2)nc1CC1NC(=O)c2ccccc21 (stereo not shown) [CBK306834]	87
COc1ccccc1C(=O)N1CCN(c2nc3c(s2)c(C)nn3C)CC1 [CBK306836]	86.6
CSc1cccc(CN(C)C(=O)c2cc(C#N)c(=O)[nH]c2C)c1 [CBK306839]	93
Cc1ccc(OCc2occc2C(=O)N2CCCCC(N)C2)cc1 (stereo not shown) [CBK306840]	107
O=C(c1coc(COc2cccc(F)c2)n1)N1CC(n2cccn2)C1 [CBK306842]	77.2
CCC(NC(=O)Nc1cc(N2CCOCC2)ccc1Cl)c1cnn(C)c1 (stereo not shown) [CBK306844]	114
COCc1nc(NCCCn2c(C)cccc2=O)cc(C2CCOC2)n1 (stereo not shown) [CBK306845]	90.9
CCC1(C)CC(=O)c2cc(NC(=O)N3CCc4n[nH]cc4C3)ccc2O1 (stereo not shown) [CBK306846]	90.3
Cc1cc(C)n(CCNC2CCN(c3ccccc3C)CC2)c(=O)n1 [CBK306848]	89.1

Structure (SMILES)	viability at 28.5 h, 10 µM [%]
CN(CCOc1ccccc1)c1cc(C2CC(N)C2)nc(N)n1 (stereo not shown) [CBK306849]	97
COc1cc2c(cc1-c1nccn1CC1CN(C(C)=O)CCO1)CCC2 (stereo not shown) [CBK306850]	88.7
COc1ncnc(C)c1-c1cc(C)c(OC)c(C)c1 [CBK306852]	100
CCOC(=O)N1CCN(C2CCCN(Cc3c(C)nn(C)c3Cl)C2)CC1 (stereo not shown) [CBK306853]	96.2
CN(CC(O)CO)C(=O)c1coc(COc2cccc(F)c2)n1 (stereo not shown) [CBK306854]	88.5
Cc1cccn2c(CN3CC(O)C3)c(C(=O)N3CCOCC3)nc12 [CBK306857]	104
CN(C)c1ccc(-c2nc(N(C)C)n(C)n2)cn1 [CBK306858]	90.1
Cc1ccc(F)c(OC2(C(=O)O)CCN(Cc3cnc(C)nc3)CC2)c1 [CBK306860]	100
COc1nccc(N2CCC3(CCCN(CC4CCC4)C3=O)C2)c1C#N (stereo not shown) [CBK306861]	84.3
CCn1cc(CN(CC(C)C)C(=O)c2c(C)nc3ccccn23)cn1 [CBK306862]	97.8
CCC(O)CNc1ccc(C(=O)N2CCC(N3CCOCC3)CC2)cn1 (stereo not shown) [CBK306865]	95.1
Cc1cccc(C(=O)NC(CC(C)C)c2nnc3n2CCNCC3)n1 (stereo not shown) [CBK306866]	108
COc1ccccc1-n1nc(-c2ccncc2)nc1C(C)NS(C)(=O)=O (stereo not shown) [CBK306868]	98
Cn1nnnc1SCCNC(=O)Nc1cccc(CN2CCCCC2)c1 [CBK306872]	97.3
CC1CCCN(C(=O)c2coc(COc3ccc(F)cc3)n2)C1 (stereo not shown) [CBK306874]	85.5
CNc1nc(NCCCn2c(C)cccc2=O)cc(C2CCOC2)n1 (stereo not shown) [CBK306875]	117
CCCN(C(=O)c1coc(COc2ccc3sc(C)nc3c2)n1)C1CC1 [CBK306878]	84
CCN(C(=O)Cn1cccc(OC)c1=O)C1CCOC(C)(C)C1 (stereo not shown) [CBK306879]	86.5
CCN1CC2(CCCN(Cc3nnc(-c4cccnc4)o3)C2)CCC1=O (stereo not shown) [CBK306881]	86.4
CCCC(=O)NC1CC(C)(C)Cc2nc(N3CCOCC3)ncc21 (stereo not shown) [CBK306883]	94.7
CC(C)c1nccc(CN2CCC(CCN3CCCC3=O)CC2)n1 [CBK306887]	116
O=C(CCNCCc1c[nH]c(=O)[nH]c1=O)Nc1cccc(Cl)c1 [CBK306889]	86.3
